Earlier results in patent US20230310471A1, “METHODS, DEVICES, AND SYSTEMS FOR TREATING LENS PROTEIN AGGREGATION DISEASES” (priority 2022, published 2023).

System: vimentin
Conditions: background statement, no experimental details printed

| Compound | vimentin degradation |
| --- | --- |
| O=S(=O)(F)Cc1ccccc1 [PMSF, phenylmethylsulfonyl fluoride] | decrease vimentin degradation |
| CC(=O)N[C@@H](CC(C)C)C(=O)N[C@@H](CC(C)C)C(=O)N[C@H](C=O)CCCNC(=N)N [leupeptin] | decrease vimentin degradation |
